Measured values published in PMC11249646, “Small-Molecule Disruptors of the Interaction between Calcium- and Integrin-Binding Protein 1 and Integrin αIIbβ3 as Novel Antiplatelet Agents” (ACS Pharmacology & Translational Science, 2024).
Read-outs that look alike come from different tables or passages of the source.

How the values were obtained:
Format in all cases: binding
[1] = target: T1, CIB1 and αIIb interaction (GST-CIB1 : F-αIIb peptide) (Homo sapiens, UniProt Q99828); assay: FP assay, 384-well format (screen); design: 384-well SCREEN Efficacy (%): concentration or dose not given beside the values; conditions: F-αIIb peptide; for 384-well SCREEN Confirm?: YES/NO; for IC50: read-out: 384-well SCREEN IC50
T1 construct: made in house; host or cells: BL-21 plus RIL cells (E. coli)
T1 sequence (Q99828 1-191): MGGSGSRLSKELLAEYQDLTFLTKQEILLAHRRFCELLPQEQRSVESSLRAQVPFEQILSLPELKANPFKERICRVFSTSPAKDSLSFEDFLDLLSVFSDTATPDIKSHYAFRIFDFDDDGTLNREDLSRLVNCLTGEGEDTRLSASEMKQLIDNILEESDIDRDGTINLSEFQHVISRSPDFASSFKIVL

[2] = target: T2, CIB1 and αIIb interaction (CIB1-GST : F-αIIb peptide) (Homo sapiens, UniProt Q99828); assay: FP assay, 1536-well qHTS format (primary and confirmatory screen); conditions: for CONFIRMATORY SCREEN Confirm?: YES/NO call; for CONFIRMATORY SCREEN Efficacy (%) / Efficacy (%): negative = inhibition
T2 construct: made in house; host or cells: BL-21 plus RIL cells (E. coli)
T2 sequence (Q99828 1-191): T1 sequence (Q99828 1-191)

[3] = target: T3, GST-CIB1 : F-scrambled peptide (Homo sapiens, UniProt Q99828); assay: FP scrambled-peptide counter screen, 1536-well format; conditions: for COUNTERSCREEN Confirm?: YES/NO call
T3 construct: made in house; host or cells: BL-21 plus RIL cells (E. coli)
T3 sequence (Q99828 1-191): T1 sequence (Q99828 1-191)

[4] = target: T3, GST-CIB1 : F-scrambled peptide; assay: FP scrambled-peptide counter screen, 384-well format; conditions: F-scrambled peptide; for 384-well COUNTERSCREEN Confirm?: *: Curve in opposite direction; for IC50: read-out: 384-well COUNTERSCREEN IC50
[5] = confirmatory screen, qHTS curve class, negative sign = inhibitory curve
[6] = confirmatory screen, read-out: CONFIRMATORY SCREEN IC50
[7] = qHTS FP screen hits, Table S2, one class per curve where COUNT > 1, negative sign = inhibitory curve
[8] = qHTS FP screen hits, Table S2, read-out: IC50
[9] = scrambled-peptide counterscreen
[10] = scrambled-peptide counterscreen, qHTS curve class
[11] = qHTS primary screen hits, Table S2
[12] = qHTS primary screen hits, Table S2, negative sign = inhibitory curve, several classes where COUNT > 1
[13] = qHTS primary screen hits, Table S2, read-out: IC50
[14] = scrambled-peptide counterscreen, read-out: COUNTERSCREEN IC50
[15] = qHTS primary screen hits, Table S2, negative sign = inhibitory curve

SMILES	384-well SCREEN Efficacy (%) [1]	384-well SCREEN Confirm? [1]	IC50 [1]	CONFIRMATORY SCREEN Confirm? ([2]; confirmatory screen)	CONFIRMATORY SCREEN Curve Class [2, 5]	CONFIRMATORY SCREEN Efficacy (%) ([2]; confirmatory screen)	IC50 [2, 6]	Efficacy (%) ([2]; qHTS FP screen hits, Table S2)	Curve Class [2, 7]	IC50 [2, 8]	COUNTERSCREEN Efficacy (%) [3, 9]	COUNTERSCREEN Confirm? [3, 9]	COUNTERSCREEN Curve Class [3, 10]	384-well COUNTERSCREEN Efficacy (%) [4]	384-well COUNTERSCREEN Confirm? [4]	IC50 [4]	Efficacy (%) [2, 11]	IC50 [2, 13]	IC50 [3, 14]	other results
N#Cc1cnc(NS(=O)(=O)c2ccc(NC(=O)Cc3ccc(Cl)c(Cl)c3)cc2)s1.O=C(O)C(F)(F)F [NCGC00250147-02]	42%	YES	7.9 µM	YES	-1.2	-48%	6.3 µM	-40%	-1.2	5.6 µM	20%	YES	4	25%	YES	> 120 µM	–	–	–	–
Cl.NC(CO)(CO)CCc1ccc(Sc2cccc(OCc3ccccc3)c2)cc1Cl [NCGC00250388-02]	57%	YES	31.6 µM	YES	-2.4	-80%	50.1 µM	–	–	–	-28%	YES	4	17%	YES	> 120 µM	-71%	79.4 µM	–	Curve Class [2, 12]: -2.2
Cc1cc2c(C(C)C)c(O)c(O)c(C=O)c2c(O)c1-c1c(C)cc2c(C(C)C)c(O)c(O)c(C=O)c2c1O [NCGC00261532-01]	90%	YES	2.7 µM	–	–	–	–	–	–	–	–	–	–	60%	YES	33 µM	–	–	–	Efficacy (%) (confirmatory screen) ([2]; confirmatory screen): -70%; Confirm? (confirmatory screen) ([2]; confirmatory screen, YES/NO): YES; Curve Class (confirmatory screen) [2, 5]: -1.4; IC50 ([2]; confirmatory screen, read-out: IC50 [μM] (confirmatory screen)): 2.8 µM; Efficacy (%) (counterscreen) ([3]; counterscreen): -63%; Curve Class (counterscreen) ([3]; counterscreen, qHTS curve class, negative sign = inhibitory curve): -1.2; IC50 ([3]; counterscreen, read-out: IC50 [μM] (counterscreen)): 7.1 µM
Cc1ccc(S(=O)(=O)Nc2cnccc2C(=O)Nc2nc(-c3ccccc3)cs2)cc1.O=C(O)C(F)(F)F [NCGC00262386-01]	29%	YES	16.1 µM	YES	-1.2	-53%	14.1 µM	–	–	–	-51%	YES	-3	42%	YES	> 120 µM	-42%	27.4 µM	89.1 µM	–
COc1ccc(C(=O)Nc2nc(-c3ccccc3)cs2)c(NS(=O)(=O)c2ccc(C)cc2)c1.O=C(O)C(F)(F)F [NCGC00262390-01]	24%	–	> 120 µM	YES	-1.2	-60%	11.2 µM	-22%	–	17.8 µM	92%	YES	–	102%	–	31.6 µM	–	–	70.8 µM	–
O=c1sc2ccccc2c(O)c1C1CC(c2ccc(-c3ccc(Br)cc3)cc2)Cc2ccccc21 (stereo not shown) [NCGC00262959-01]	87%	–	> 120 µM	YES	-1.4	-49%	7.1 µM	-38%	-1.2	17.8 µM	118%	YES	–	156%	–	25.1 µM	–	–	79.4 µM	–
Cc1ccc(S(=O)(=O)Nc2cc([N+](=O)[O-])ccc2C(=O)Nc2nc(-c3ccccc3)cs2)cc1.O=C(O)C(F)(F)F [NCGC00262992-01]	135%	YES	> 120 µM	YES	-1.1	-97%	5.6 µM	–	–	–	42%	YES	4	115%	–	79.4 µM	-34%	10 µM	–	Curve Class [2, 15]: -2.4
Cc1ccc(S(=O)(=O)Nc2cnccc2C(=O)Nc2nc(-c3ccc4c(c3)CCCC4)cs2)cc1.O=C(O)C(F)(F)F [NCGC00318953-01]	20%	–	> 120 µM	YES	-1.2	-70%	–	-37%	-1.2	20 µM	-23%	YES	4	125%	–	35.5 µM	–	–	–	–
Cc1ccc(S(=O)(=O)Nc2cnccc2C(=O)Nc2nc(-c3ccc(C)c(C)c3)cs2)cc1.O=C(O)C(F)(F)F [NCGC00318954-01]	52%	YES	16 µM	YES	-1.4	-70%	22.4 µM	–	–	–	17%	YES	4	37%	YES*	31.6 µM	-61%	–	–	Curve Class [2, 12]: -3
Cc1ccc(S(=O)(=O)Nc2cnccc2C(=O)Nc2nc(-c3cccc(Cl)c3)cs2)cc1.O=C(O)C(F)(F)F [NCGC00318956-01]	43%	YES	14.2 µM	YES	-1.1	-94%	–	–	–	–	-8.5%	YES	4	84%	YES*	20 µM	-32%	12.6 µM	–	Curve Class [2, 15]: -1.4
Cc1ccc(S(=O)(=O)Nc2cnccc2C(=O)Nc2nc(-c3ccc(Cl)cc3)cs2)cc1.O=C(O)C(F)(F)F [NCGC00318981-01]	45%	–	> 120 µM	YES	-1.2	-69%	28.2 µM	–	–	–	53%	YES	3	60%	–	28.2 µM	-35%	31.6 µM	89.1 µM	Curve Class [2, 12]: -1.2
COc1cccc(-c2csc(NC(=O)c3ccncc3NS(=O)(=O)c3ccc(C)cc3)n2)c1 [NCGC00319006-02]	52%	YES	20 µM	YES	-2.2	-89%	31.6 µM	–	–	–	-41%	YES	-3	18%	YES	> 120 µM	–	–	89.1 µM	–
Cc1ccc(-c2csc(NC(=O)c3ccncc3NS(=O)(=O)c3ccc(C)cc3)n2)cc1.O=C(O)C(F)(F)F [NCGC00319008-01]	46%	YES	10.7 µM	YES	-1.2	-50%	–	-45%	-1.2	17.8 µM	26%	YES	4	70%	YES*	8.9 µM	–	–	–	–
